Earlier results, collected in patent publication US20140187635A1, “DICLOFENAC COMPOSITIONS” (THEMIS MEDICARE LIMITED, priority 2012, published 2014).
Read-outs that look alike come from different tables or passages of the source.

How the values were obtained:
Dog = settings: intravenous
rat = settings: in vivo, iv
rabbit = settings: intravenous

**Q.** What does the source list for `CCOCCOCCO` [Transcutol, diethylene glycol monoethyl ether]?
**A.** LD50 (mouse; in vivo, ip): 2300 mg/kg; LD50 (mouse; intravenous): 4300 µL/kg; LD50 (subcutaneous: mouse) (mouse; subcutaneous): 5500 µL/kg; LD50 (Dog): 3 mL/kg; LD50 (rat): 4000 mg/kg; LD50 (rabbit): 2500 µL/kg; eyes: rabbit (eyes: rabbit): 500 mg
